Measured values reported in patent US8648112B2, “Therapeutic uses of urolithins” (The Regents of the University of California, priority 2006, dated 2014).
Where two headings read alike, the source gives them in different places.

What was measured:
[1] = tested on: 22Rv1 prostate cancer cell line; assay: Antiproliferative cell assay (CellTiter-Glo), 22Rv1; format: cell-based, human; settings: 48 h exposure, read-out: IC50 against prostate cancer cell line 22 Rv1
Method: (§1) Cell Culture Materials. The 22Rv1, DU145, LNCaP and PC3 prostate cancer cell lines were obtained from American Type Culture Collection (ATCC, Rockville, Md.). The LNCaP-AR and Hi-Myc cell lines were a kind donation by Dr. C. Sawyers (David Geffen School of Medicine, UCLA, Los Angeles, Calif.). DU145, 22Rv1, LNCaP, LNCaP-AR, and PC3 cells were grown in RPMI 1640; Hi-Myc cells were grown in Isecove's Modified Dulbecco's Medium. All media contained 10% fetal bovine serum (FBS) in the presence of 100 U/mL penicillin and 0.1 g/L streptomycin. RWPE-1 prostate cells were grown in Defined Keratinocyte Serum Free Medium (DKSFM) containing epidermal growth factor (EGF), insulin and fibroblast growth factor (FGF). Cells were incubated at 37° C. with 95% air and 5% CO2. All cells were maintained below passage 20 and used in experiments during the linear phase of growth.
(§2) Proliferation was measured utilizing the CellTiter-Glo® Luminescent Cell Viability Assay (Technical Bulletin #288, Promega Corp., Madison, Wis.). When added to cells, the assay reagent produces luminescence in the presence of ATP from viable cells. Cells were plated in 96-well plates at a density of 10,000 cells/well and incubated for 24 hours. Test samples were solubilized in DMSO by sonication, filter sterilized and diluted with media to the desired treatment concentration. Cells were treated with 100 μLcontrol media, vehicle control (DMSO<0.2% of total) or test samples and incubated for 48 h drug exposure duration at 6.25, 12.5, 25, 50 and 100 μg/mL concentrations. At the end of 48 h, plates were equilibrated at room temperature for 30 min; 100 μL of the assay reagent was added to each well and cell-lysis was induced on an orbital shaker for 2 min. Plates were incubated at room temperature for 10 min to stabilize the luminescence signal and results were read on an Orion Microplate Luminometer (Bertholds Detection Systems, Pforzheim, Germany). All plates had control wells containing medium without cells to obtain a value for background luminescence. Data are expressed as percentage of untreated cells (i.e. treatment value-blank/vehicle value-blank), mean±SE for three replications.

[2] = tested on: DU145 prostate cancer cell line; assay: Antiproliferative cell assay (CellTiter-Glo), DU145; format: cell-based, human; settings: read-out: IC50 against prostate cancer cell line DU145
Method: as §1, §2

[3] = tested on: Hi-Myc prostate cancer cell line; assay: Antiproliferative cell assay (CellTiter-Glo), Hi-Myc; format: cell-based; settings: Hi-Myc (mouse), 48 h exposure, read-out: IC50 against prostate cancer cell line HiMyc
Method: as §1, §2

[4] = tested on: LNCaP prostate cancer cell line; assay: Antiproliferative cell assay (CellTiter-Glo), LNCaP; format: cell-based, human; settings: 48 h exposure, read-out: IC50 against prostate cancer cell line LNCaP
Method: as §1, §2

[5] = tested on: LNCaP-AR prostate cancer cell line; assay: Antiproliferative cell assay (CellTiter-Glo), LNCaP-AR; format: cell-based, human; settings: 48 h exposure, read-out: IC50 against prostate cancer cell line LNCap-AR
Method: as §1, §2

[6] = tested on: PC3 prostate cancer cell line; assay: Antiproliferative cell assay (CellTiter-Glo), PC3; format: cell-based, human; settings: 48 h exposure, read-out: IC50 against prostate cancer cell line PC3
Method: as §1, §2

[7] = tested on: human colon cancer cell line HCT-116; assay: Antiproliferative activity against colon cancer cells (CellTiter-Glo); format: cell-based; settings: 100 μg/mL, 48 hrs
Method: (§3) EA and EA-metabolites (gallic and gallagic acids, urolithin B and methylated-urolithin A) were evaluated for antiproliferative activity against the human colon cancer cell line HCT-116. The cells were grown to a concentration of 10,000 cells per well in a 96 well format; and were then resuspended in medium containing vehicle control or the indicated compound: Ellagic acid, urolithin A, methyl urolithin A, or urolithin B, at a concentration of 100 μg/mL. The cells were incubated for 48 hrs, and the viability assayed by the CellTiter-Glo® Luminescent Cell Viability Assay (Technical Bulletin #288, Promega Corp., Madison, Wis.).

[8] = tested on: human pancreatic cancer cell line ASPC-1; assay: Antiproliferative activity against pancreatic cancer cells (CellTiter-Glo), ASPC-1; format: cell-based; settings: 100 μg/mL, 48 hrs
Method: as §3, with “pancreatic” for “colon”, “lines ASPC-1 and BXPC-3.” for “line HCT-116.”, “well;” for “well in a 96 well format;”, “containing the” for “containing”, “byCellTiter-Glo®” for “by the CellTiter-Glo®”

[9] = tested on: human pancreatic cancer cell line BXPC-3; assay: Antiproliferative activity against pancreatic cancer cells (CellTiter-Glo), BXPC-3; format: cell-based; settings: 100 μg/mL, 48 hrs
Method: as §3, with “pancreatic” for “colon”, “lines ASPC-1 and BXPC-3.” for “line HCT-116.”, “well;” for “well in a 96 well format;”, “containing the” for “containing”, “byCellTiter-Glo®” for “by the CellTiter-Glo®”

LNCaP cells = assay: In vitro proliferation (tritiated thymidine uptake), LNCaP; format: cell-based; settings: mean ± SE, read-out: IC50 on growth of human prostate cancer cells
Text: (§4) DU145 and LNCaP cells (ATCC, Rockville, Md.), 22Rv1 cells (gift from Pinchas Cohen), and LNCAP-AR cells (gift from Charles Sawyers) were maintained below passage 20 and used in experiments during the linear phase of growth as previously described (Seeram et al. J Nutr Biochem. 16 (2005), p. 360). EA was purchased from Sigma-Aldrich (St. Louis, Mo.). UA (3,8-dihydroxy-6H-benzo[b,d]chromen-6-one), methylated UA and dimethylated UA were synthesized in our laboratory as previously described (Ghosal et al. J Chem Res Synop. 11 (1989), p. 350). Compounds were dissolved in dimethylsulfoxide (DMSO) then added to media to achieve the final desired test concentration with a final DMSO concentration not exceeding 0.1%. Proliferation was determined by tritiated thymidine uptake as previously described. All assays were performed in triplicate.
(§5) For the cell proliferation assays, data are expressed as a percentage of untreated cells (i.e. treatment value-blank/vehicle value-blank), mean±SE for at least three separate experiments. Data were analyzed by either student's t-test or one-way ANOVA followed by Dunnett's Multiple Range test (α=0.05) with Graph Pad Prism 3.0 (Graph Pad Software Inc.) as appropriate.

LNCaP-AR cells = assay: In vitro proliferation (tritiated thymidine uptake), LNCaP-AR; format: cell-based; settings: mean ± SE, read-out: IC50 on growth of human prostate cancer cells
Text: as §4, §5

DU145 cells = assay: In vitro proliferation (tritiated thymidine uptake), DU145; format: cell-based; settings: read-out: IC50 on growth of human prostate cancer cells
Text: as §4, §5

22Rv1 cells = assay: In vitro proliferation (tritiated thymidine uptake), 22RV1; format: cell-based; settings: mean ± SE, read-out: IC50 on growth of human prostate cancer cells
Text: as §4, §5

[10] = Tissue disposition study after UA administration; format: in vivo, C57/B6 mice; settings: for UA and UA-conjugate levels in plasma at 24 h / UA and UA-conjugate levels in tissues at 24 h: below detectable limit
Method: Pomegranate extract (PE) derived from the skin of pomegranate fruit (Punica granatum L., Paramount Farms, Lost Hills, Calif.) was standardized to 37% ETs (as punicalagins) and 3.5% free EA as reported (Seeram et al. Sep Purific Tech. 41 (2005), p. 49). PE was administered to animals in doses based on the amount of ETs in a single serving of pomegranate juice (240 ml of single strength juice, 80 mg of ETs). The equivalent dose that would be administered to a 70 kg human was calculated for a mouse of 25 g body weight to be 0.03 mg ETs. Ten times (10×) this dose was used in the animal studies (0.8 mg PE per dose per animal) to enhance our ability to detect phytochemical distribution. For studies administering UA, doses were calculated assuming complete conversion of ETs to UA. […] Both PE and UA were suspended in 50 μL PBS or 10% aqueous glucose solution for intraperitoneal or oral administration, respectively.
Male C57/B6 mice (n=156 mice, retired breeders, 7 months old, 25-30 g) from Charles River laboratories (Wilmington, Mass.) were fed AlN 93G diets and water ad libitum, and fasted 6 h prior to dosing. Mice were dosed orally or intraperitoneally with either PE (0.8 mg/mouse/dose; n=72), UA (0.3 mg/mouse/dose; n=72) or vehicle control (50 μL; n=12 mice). Blood samples were collected at 0.5, 1, 2, 4, 6 and 24 h after dosing and prostate, liver, kidney, lung, colon, intestine and brain tissues were collected and stored at −80° C. Harvested tissue (200 mg) was homogenized in methanol with 0.1% acetic acid (1 mL) and centrifuged at 3000×g for 10 min. The supernatant was dried on a SpeedVac then reconstituted with 200 μL of the HPLC mobile phase for a final injection volume of 20 μL. Xenograft tissue homogenates required acid hydrolysis prior to chromatography as reported (Gu et al. J Agric Food Chem. 53 (2005), p. 6858). HPLC-UV and HPLC-MS/MS analyses were carried out on a Waters Alliance 2690 system (Waters Corp., Milford, Mass.) an LCQ Classic Finnigan system (ThermoFinnigan, San Jose, Calif.), respectively, as previously described (Seeram et al. Clin Chim Acta. 348 (2004), p. 63). Linear calibration curves were constructed using a spiked internal standard method with EA or UA using plasma or liver tissues collected from control mice as described previously (Seeram et al. Clin Chim Acta. 348 (2004), p. 63). Accuracy values ranged from 91-108% for the quality control samples containing the EA or UA standard.

[11] = Homo sapiens, DU-145, 48 h exposure
[12] = UA 0.3 mg/mouse/dose intraperitoneal

| Structure (SMILES) | IC50 ([1]; Homo sapiens, 22Rv1, 48 h) [µM] | IC50 [2, 11] [µM] | IC50 [3] [µM] | IC50 ([4]; Homo sapiens) [µM] | IC50 ([5]; Homo sapiens) [µM] | IC50 ([6]; Homo sapiens) [µM] | anti-proliferative activity, rank order [7] | anti-proliferative activity, rank order [8] | anti-proliferative activity, rank order [9] | IC50 [1] [µM] | IC50 (LNCaP cells) [µM] | IC50 (DU145 cells; mean ± SE) [µM] | IC50 (22Rv1 cells) [µM] | further results |
| --- | --- | --- | --- | --- | --- | --- | --- | --- | --- | --- | --- | --- | --- | --- |
| COc1ccc2c(c1)c(=O)oc1cc(O)ccc12 [8-methyl-Urolithin A, 3-hydroxy-8-methoxyl-6H-dibenzo[b,d]pyran-6-one] | 127 | 466 | 586 | 206 | 151 | 526 | urolithin A is the most active, then ellagic acid, urolithin B and methyl urolithin A | urolithin A is the most active, then ellagic acid, urolithin B and methyl urolithin A | urolithin A is the most active, then ellagic acid, urolithin B and methyl urolithin A | – | – | – | – | – |
| O=c1oc2c(O)c(O)cc3c(=O)oc4c(O)c(O)cc1c4c23 [Ellagic acid, reference compound] | 41.7 | 96 | 1.7 | 20.5 | 82.6 | 83.6 | urolithin A is the most active, then ellagic acid, urolithin B and methyl urolithin A | urolithin A is the most active, then ellagic acid, urolithin B and methyl urolithin A | urolithin A is the most active, then ellagic acid, urolithin B and methyl urolithin A | – | – | – | – | IC50 (LNCaP cells; Homo sapiens): 62.4 ± 4.2 µM; IC50 (LNCaP-AR cells; Homo sapiens): 78.7 ± 3.2 µM; IC50 (DU145 cells; Homo sapiens, DU-145, mean ± SE): 74.3 ± 5.2 µM; IC50 (22Rv1 cells; Homo sapiens): 109 ± 16.6 µM |
| O=C(O)c1cc(O)c(O)c(O)c1-c1c(O)c(O)c2oc(=O)c3c(-c4c(C(=O)O)cc(O)c(O)c4O)c(O)c(O)c4oc(=O)c1c2c43 [Gallagic acid] | – | – | 82.7 | – | – | – | – | – | – | 166 | – | – | – | IC50 ([2]; 48 h exposure): 198 µM; IC50 [4]: 71.4 µM; IC50 [5]: 82.4 µM; IC50 [6]: 83.6 µM |
| O=C(O)c1cc(O)c(O)c(O)c1 [Gallic acid] | 18.6 | 29.4 | 73.5 | 32.3 | 29.2 | 111 | – | – | – | 18.5 | – | – | – | – |
| O=c1oc2cc(O)ccc2c2ccc(O)cc12 [UA, 3,8-dihydroxy-6H-benzo[b,d]chromen-6-one] | – | – | – | – | – | – | most active | most active | most active | – | 31.3 ± 0.5 | 49.8 ± 3.9 | 47.8 ± 3.2 | UA and UA-conjugate levels in plasma at 24 h [10, 12]: < 3 ng/mL; UA and UA-conjugate levels in tissues at 24 h [10, 12]: < 5 ng/g; UA and UA-conjugate levels in plasma at 24 h ([10]; UA 0.3 mg/mouse/dose oral): < 3 ng/mL; UA and UA-conjugate levels in tissues at 24 h ([10]; UA 0.3 mg/mouse/dose oral): < 5 ng/g; time of peak concentration in prostate, colon and intestine ([10]; UA intraperitoneally): 2 h; tissue uptake ([10]; UA orally, prostate followed by small intestine and colon): highest concentrations in the prostate gland; IC50 (LNCaP-AR cells): 43.3 ± 2.8 µM |
| COc1ccc2c(c1)oc(=O)c1cc(OC)ccc12 [dmUA] | – | – | – | – | – | – | – | – | – | – | 71.4 ± 13.5 | 70.7 ± 13 | 85 ± 8.6 | – |
